Source: patent publication US11945826B2, “Hydroxypyridoxazepines as NRF2 activators” (GLAXOSMITHKLINE INTELLECTUAL PROPERTY DEVELOPMENT LIMITED, priority 2019, dated 2024)

Key:
human PXR = molecular target: T1, human PXR (Homo sapiens, UniProt O75469); test: Human PXR Activation Assay; assay type: cell-based; settings: for EC50: HepG2 transfected with human PXR and CYP3A4 promoter luciferase, 24 h; for Emax at 24 h: human, percent maximum induction compared to 10 μM rifampicin
T1 construct: expression vectors containing full length human PXR; expressed in transfected cells; host or cells: HepG2 (human hepatocellular carcinoma line), transient transfection with FuGENE
T1 sequence (O75469 1-434): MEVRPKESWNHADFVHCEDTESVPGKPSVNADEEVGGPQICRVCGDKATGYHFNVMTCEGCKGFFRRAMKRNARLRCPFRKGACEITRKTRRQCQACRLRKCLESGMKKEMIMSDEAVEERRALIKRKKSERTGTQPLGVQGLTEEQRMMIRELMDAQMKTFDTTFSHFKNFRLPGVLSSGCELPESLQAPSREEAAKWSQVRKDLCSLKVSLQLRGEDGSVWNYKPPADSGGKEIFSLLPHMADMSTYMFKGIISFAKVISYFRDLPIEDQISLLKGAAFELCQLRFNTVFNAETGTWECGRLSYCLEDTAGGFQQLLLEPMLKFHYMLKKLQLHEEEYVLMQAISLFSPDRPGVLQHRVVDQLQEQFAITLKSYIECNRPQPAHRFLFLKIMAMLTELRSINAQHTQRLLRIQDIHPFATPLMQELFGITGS
Experimental: Transactivation activity of PXR ligands was measured in a human hepatocellular carcinoma line (HepG2) batch transiently transfected using FuGENE™ with expression vectors containing full length human PXR and the human CYP3A4 promoter driving luciferase expression. Following transfection, cells are frozen until required for assay.
On day of assay, cells were recovered, counted on a CEDEX instrument then resuspended to a density of 50,000 cells/mL in phenol red-free DMEM-F12 supplemented with 10% charcoal/dextran-treated FBS. 20 μl of cell suspension was then dispensed to each well of white Nunc 384-well plates, containing […] of test compounds in DMSO. Cells were incubated for 24 h in the presence compound after which time […] of Steady-Lite™ luciferase substrate was added to each well. Luciferase activity was quantified by measurement on the Pherastar™ imager and activity was expressed as percent maximum induction as compared to induction by 10 μM rifampicin.

Mouse PK Study = assay type: in vivo; settings: male CD1 mice, 30 mg/kg oral suspension, blood
Experimental: All studies were conducted after review by the GSK Institutional Animal Care and Use Committee and in accordance with the GSK Policy on the Care, Welfare and Treatment of Laboratory Animals. The oral suspension pharmacokinetic study was carried out on a single study day; a total of three male CD1 mice were used.
The compounds used in this study were the compound of Example 1, herein, and Compound A (the compound of Example 1 of WO 2018/109646).
The oral suspension dose was prepared in 1% aqueous methylcellulose. Each animal received a nominal dose of 30 mg/kg (10 mL/kg dose volume) as an oral gavage. Blood samples (approximately 0.025 mL each) were collected from a tail vein. Blood samples were collected prior to dosing and at target times of 15, 30, 60, 120, 240, 480, and 1440 minutes following oral gavage. A 25 μL aliquot was added to a non-heparinized tube containing 25 μL water and quick frozen on solid carbon dioxide and stored at approximately −80° C. until analyzed by liquid chromatography/tandem mass spectroscopy (LC/MS/MS) for test compound concentration.
Pharmacokinetic parameters for all in vivo PK studies were calculated using non-compartmental methods with Phoenix WinNonlin version 6.1.0 or 8.1.0. All parameters were calculated using actual blood sampling times and actual dosages for each animal. […]

[1] = Mouse Plasma Protein Binding Study; assay type: in vitro ADME; settings: heparinized mouse plasma, pH 7.5, ultracentrifugation 37° C. 3 hours, read-out: Plasma Protein Binding, % bound (converted)
Experimental: Stock solutions of the compound of Example 1, herein, and Compound A (the compound of Example 1 of WO 2018/109646), were prepared in dimethyl sulfoxide (DMSO) at a concentration of 1 mg/mL. Incubation mixtures were prepared by diluting the stock solution into heparinized mouse plasma to a concentration of 2000 ng/mL. The final concentration of DMSO was 0.2%. The thawed plasma was centrifuged to remove any debris. If necessary, the pH of the plasma sample was adjusted to approximately 7.5 with 1% aqueous phosphoric acid prior to use. Incubation mixtures were prepared. Triplicate 10 μL aliquots of each incubation mixture were collected and analyzed to verify initial compound concentration. Four aliquots of each incubation mixture were placed into separate polyallomer ultracentrifuge tubes. The incubation mixtures were centrifuged in a Beckman Type 42.2 Ti rotor at 42,000 rpm (214,361×g) at 37° C. for 3 hours with maximum acceleration and deceleration. […] The samples were quick frozen on solid carbon dioxide and stored at approximately −80° C. until analyzed by liquid chromatography/tandem mass spectroscopy (LC/MS/MS) for test compound concentration. Total recovery of compound from the ultracentrifugation tubes was calculated with the following formula: […]
Percent unbound (Fu) by ultracentrifugation was calculated with the following formula: […]

Row | SMILES | EC50 (human PXR) [µM] | Emax at 24 h (human PXR) [%] | Mouse Pharmacokinetics Clearance/Bioavailability (Mouse PK Study) [mL/min/kg] | fraction unbound at 3 h, 2000 ng/mL [1]
1 | CC[C@@H]1CN(Cc2cc([C@@H](CC(=O)O)c3ccc4c(nnn4C)c3C)ccc2C)Cc2nc(O)ccc2O1 [Example 1, (R)-3-(1,4-dimethyl-1H-benzo[d][1,2,3]triazol-5-yl)-3-(3-(((R)-2-ethyl-7-hydroxy-2,3-dihydropyrido[2,3-f][1,4]oxazepin-4(5H)-yl)methyl)-4-methylphenyl)propanoic acid] | > 50 | 10 | 15.6 | 0.084
2 | CC[C@@H]1CN(Cc2cc([C@@H](CC(=O)O)c3ccc4c(nnn4C)c3C)ccc2C)Cc2ncccc2O1 [Compound A, reference compound] | 25 | 56 | 31 | 0.003
